Assay [1] concerns Enterococcus faecalis. Briefly: Antibacterial activity against Enterococcus faecalis. In kind it is functional. The note with it: GC 4555.
The test system of assay [2] is Staphylococcus aureus. Briefly: Antibacterial activity against methicillin resistant Staphylococcus aureus. It is filed as functional. The settings on record: GC 1131.
For assay [3], the system named is Enterococcus faecalis. Briefly: Antibacterial activity against vancomycin resistant Enterococcus faecalis. It is filed as functional. The note with it: GC 2242.
Assay [4] addresses UDP-N-acetylglucosamine 1-carboxyvinyltransferase (Escherichia coli K-12, UniProt P0A749). Kind of assay: Inhibitory activity against MurA in Escherichia coli.
In assay [5] the test system is Staphylococcus aureus. Kind of assay: Antibacterial activity against Staphylococcus aureus. It is filed as functional. The note with it: GC 4543.
Another assay has as its system Streptococcus pneumoniae. Kind of assay: Antibacterial activity against penicillin resistant Streptococcus pneumoniae. In kind it is functional. The note with it: GC 1894.
Assay [6] deals with T1, UDP-N-acetylmuramoylalanine--D-glutamate ligase (Escherichia coli K-12, UniProt P14900).
T1 sequence (P14900 whole entry): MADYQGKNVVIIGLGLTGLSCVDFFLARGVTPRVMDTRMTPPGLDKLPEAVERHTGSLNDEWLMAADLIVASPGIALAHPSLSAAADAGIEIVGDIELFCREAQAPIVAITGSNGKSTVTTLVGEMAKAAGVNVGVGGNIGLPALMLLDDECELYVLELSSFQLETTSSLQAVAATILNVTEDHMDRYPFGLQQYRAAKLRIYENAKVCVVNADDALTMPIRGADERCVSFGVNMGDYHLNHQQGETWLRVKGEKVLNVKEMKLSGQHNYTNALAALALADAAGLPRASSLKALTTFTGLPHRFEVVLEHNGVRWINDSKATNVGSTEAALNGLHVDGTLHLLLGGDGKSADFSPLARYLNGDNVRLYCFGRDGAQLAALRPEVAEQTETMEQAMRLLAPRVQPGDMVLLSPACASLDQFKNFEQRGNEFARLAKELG
Kind of assay: Inhibitory activity against MurD in Escherichia coli.

The target of assay [7] is UDP-N-acetylmuramate--L-alanine ligase (Escherichia coli K-12, UniProt P17952). Kind of assay: Inhibitory activity against MurC in Escherichia coli.
UDP-N-acetylmuramate--L-alanine ligase, sequence (P17952 whole entry): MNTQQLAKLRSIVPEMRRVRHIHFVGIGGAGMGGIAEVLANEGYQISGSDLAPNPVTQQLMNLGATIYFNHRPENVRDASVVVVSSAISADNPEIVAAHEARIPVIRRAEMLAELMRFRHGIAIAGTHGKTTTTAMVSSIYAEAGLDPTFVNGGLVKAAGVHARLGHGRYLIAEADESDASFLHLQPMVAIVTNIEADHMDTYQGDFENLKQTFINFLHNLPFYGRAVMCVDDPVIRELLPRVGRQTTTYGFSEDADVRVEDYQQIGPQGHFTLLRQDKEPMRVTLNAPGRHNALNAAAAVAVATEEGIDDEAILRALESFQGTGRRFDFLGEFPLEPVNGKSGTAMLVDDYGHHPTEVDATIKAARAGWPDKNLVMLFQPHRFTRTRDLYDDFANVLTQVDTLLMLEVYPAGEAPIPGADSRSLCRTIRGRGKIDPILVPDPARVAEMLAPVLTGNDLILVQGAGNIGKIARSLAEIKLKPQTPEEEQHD
Assay [8] concerns the target T2, UDP-N-acetylenolpyruvoylglucosamine reductase (Escherichia coli K-12, UniProt P08373).
T2 sequence (P08373 whole entry): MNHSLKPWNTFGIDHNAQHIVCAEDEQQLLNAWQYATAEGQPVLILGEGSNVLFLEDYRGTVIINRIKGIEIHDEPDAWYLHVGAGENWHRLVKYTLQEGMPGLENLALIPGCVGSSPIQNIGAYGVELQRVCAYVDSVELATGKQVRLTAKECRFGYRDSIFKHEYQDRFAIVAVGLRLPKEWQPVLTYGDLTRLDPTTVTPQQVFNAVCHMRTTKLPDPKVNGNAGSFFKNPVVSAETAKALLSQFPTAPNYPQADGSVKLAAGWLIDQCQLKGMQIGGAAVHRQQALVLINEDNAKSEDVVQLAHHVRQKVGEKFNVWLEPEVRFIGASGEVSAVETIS
Kind of assay: Inhibitory activity against MurB in Escherichia coli.

The target of assay [9] is T3, UDP-N-acetylmuramoylalanine--D-glutamate ligase (Staphylococcus aureus, UniProt P0A091).
T3 sequence (P0A091 whole entry): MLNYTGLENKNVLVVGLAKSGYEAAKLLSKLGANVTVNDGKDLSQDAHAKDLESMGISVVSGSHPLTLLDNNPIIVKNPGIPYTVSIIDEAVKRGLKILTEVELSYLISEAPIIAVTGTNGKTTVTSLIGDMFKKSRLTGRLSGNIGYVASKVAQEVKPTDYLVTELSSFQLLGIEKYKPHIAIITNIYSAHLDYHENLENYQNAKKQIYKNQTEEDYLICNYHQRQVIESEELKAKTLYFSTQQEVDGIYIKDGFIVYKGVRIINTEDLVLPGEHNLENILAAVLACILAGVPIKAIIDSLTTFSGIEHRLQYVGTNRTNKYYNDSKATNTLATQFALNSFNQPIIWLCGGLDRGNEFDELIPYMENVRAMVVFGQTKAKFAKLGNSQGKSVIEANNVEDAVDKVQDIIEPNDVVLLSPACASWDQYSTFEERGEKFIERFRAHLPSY
Kind of assay: Inhibitory activity against MurD in Staphylococcus aureus.

Experimental findings from ChEMBL document CHEMBL1148552, “Pulvinones as bacterial cell wall biosynthesis inhibitors” (Bioorg Med Chem Lett, 2006) are described below.

Converted amounts (≈) assume the structure as drawn.

UDP-N-acetylglucosamine 1-carboxyvinyltransferase, sequence (P0A749 whole entry): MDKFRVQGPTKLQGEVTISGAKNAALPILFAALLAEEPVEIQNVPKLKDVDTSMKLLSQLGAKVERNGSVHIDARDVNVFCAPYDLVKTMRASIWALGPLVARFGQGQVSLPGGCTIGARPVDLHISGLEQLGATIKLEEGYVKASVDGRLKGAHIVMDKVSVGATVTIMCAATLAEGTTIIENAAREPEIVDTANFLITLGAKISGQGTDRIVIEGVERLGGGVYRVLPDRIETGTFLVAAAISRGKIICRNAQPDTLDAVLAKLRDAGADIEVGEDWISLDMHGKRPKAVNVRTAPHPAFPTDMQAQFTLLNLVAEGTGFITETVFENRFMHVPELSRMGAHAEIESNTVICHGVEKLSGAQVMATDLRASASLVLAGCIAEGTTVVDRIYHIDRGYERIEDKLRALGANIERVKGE

For `O=C1O/C(=C\c2ccc(Cl)cc2)C(O)=C1c1ccc(-c2ccccc2)cc1`, the MIC – broadly, the lowest concentration that inhibits growth of the organism – with Enterococcus faecalis [1] is 8 µg/mL (≈ 21.3 µM); in the assay on Staphylococcus aureus [2] it was 16 µg/mL (≈ 42.7 µM); against Enterococcus faecalis [3], 4 µg/mL (≈ 10.7 µM); against Staphylococcus aureus [5], 16 µg/mL (≈ 42.7 µM); in the assay with Streptococcus pneumoniae, 1 µg/mL (≈ 2.67 µM). Besides, the half-maximal inhibitory concentration (IC50) in assay [4] and in assay [6] was greater than 66.7 µM in each case.
`O=C1O/C(=C\c2cc(C(F)(F)F)ccc2F)C(O)=C1c1ccc(-c2ccccc2)c(F)c1`: the MIC against Enterococcus faecalis [1] stood at 2 µg/mL (≈ 4.5 µM); with Staphylococcus aureus [2], 2 µg/mL (≈ 4.5 µM); against Enterococcus faecalis [3] it was 2 µg/mL (≈ 4.5 µM); against Staphylococcus aureus [5] it was 2 µg/mL (≈ 4.5 µM); in the assay with Streptococcus pneumoniae it was 0.5 µg/mL (≈ 1.13 µM).
Turning to `O=C1O/C(=C(/C(=O)Nc2cccc(C(F)(F)F)c2)c2ccccc2)C(O)=C1c1ccccc1`, in assay [7], half-maximal inhibition (IC50) was put at 17.7 µM.
In the case of `O=C1O/C(=C\c2ccc3ccccc3c2)C(O)=C1c1cccc(C(F)(F)F)c1`, the MIC in the assay with Enterococcus faecalis [1] was 16 µg/mL (≈ 41.8 µM); against Staphylococcus aureus [2] it was 8 µg/mL (≈ 20.9 µM); against Enterococcus faecalis [3] it was 4 µg/mL (≈ 10.5 µM); in the assay with Staphylococcus aureus [5], 8 µg/mL (≈ 20.9 µM); against Streptococcus pneumoniae, 0.5 µg/mL (≈ 1.31 µM). The IC50 in assay [4] and in assay [6] was greater than 65.4 µM in each case.
As for `O=C1O/C(=C\C2CCCCC2)C(O)=C1c1ccc2ccccc2c1`, the MIC was 32 µg/mL (≈ 99.9 µM) in the assay with Enterococcus faecalis [1]; greater than 128 µg/mL with Staphylococcus aureus [2]; 8 µg/mL (≈ 25 µM) against Enterococcus faecalis [3]; 16 µg/mL (≈ 49.9 µM) against Staphylococcus aureus [5]; no more than 0.12 µg/mL against Streptococcus pneumoniae.
Take `COc1ccccc1-c1ccc(/C=C2\OC(O)=C(c3cc(Cl)cc(Cl)c3)C2=O)cc1OC`: the minimum inhibitory concentration (MIC) against Enterococcus faecalis [1] was 8 µg/mL (≈ 17 µM); against Staphylococcus aureus [2], 2 µg/mL (≈ 4.26 µM); in the assay on Enterococcus faecalis [3] it was 8 µg/mL (≈ 17 µM); with Staphylococcus aureus [5] it was 2 µg/mL (≈ 4.26 µM); with Streptococcus pneumoniae it was 0.5 µg/mL (≈ 1.07 µM). The half-maximal inhibitory concentration (IC50) (in general, the point on the concentration scale where inhibition reaches its midpoint) in assay [7] was 12.8 µM; in assay [4] it was 36.2 µM; in [8], 12.8 µM; in assay [6], greater than 53.3 µM.
With `O=C1O/C(=C\c2cccc3ccccc23)C(O)=C1c1cccc(C(F)(F)F)c1`, the MIC against Enterococcus faecalis [1] turned out to be 16 µg/mL (≈ 41.8 µM); in the assay with Staphylococcus aureus [2], 8 µg/mL (≈ 20.9 µM); in the assay with Enterococcus faecalis [3] it was 8 µg/mL (≈ 20.9 µM); in the assay with Staphylococcus aureus [5], 8 µg/mL (≈ 20.9 µM); with Streptococcus pneumoniae, 0.5 µg/mL (≈ 1.31 µM). Further, the half-maximal inhibitory concentration (IC50) in assay [4] and in assay [6] was greater than 65.4 µM each time.
`O=C1O/C(=C\c2cccc(C(F)(F)F)c2)C(O)=C1c1cccc2ccccc12`: the MIC was greater than 128 µg/mL against Enterococcus faecalis [1]; 32 µg/mL (≈ 83.7 µM) in the assay on Staphylococcus aureus [2]; 32 µg/mL (≈ 83.7 µM) with Enterococcus faecalis [3]; 64 µg/mL (≈ 167 µM) against Staphylococcus aureus [5]; 8 µg/mL (≈ 20.9 µM) with Streptococcus pneumoniae. Moreover, the IC50 in assay [4], in [8] and in assay [6] was greater than 65.4 µM each time.
With `O=C1O/C(=C\c2cccc(-c3cccc(Cl)c3)c2)C(O)=C1c1cccc(Cl)c1`, the MIC was 8 µg/mL (≈ 19.5 µM) in the assay with Enterococcus faecalis [1]; greater than 128 µg/mL with Staphylococcus aureus [2]; 4 µg/mL (≈ 9.77 µM) in the assay on Enterococcus faecalis [3]; 1 µg/mL (≈ 2.44 µM) in the assay with Staphylococcus aureus [5]; 1 µg/mL (≈ 2.44 µM) with Streptococcus pneumoniae.
For the compound `O=C1O/C(=C\c2cccc(-c3cc(Cl)cc(Cl)c3)c2)C(O)=C1c1cc(Cl)cc(Cl)c1`, the minimum inhibitory concentration (MIC) came out at 1 µg/mL (≈ 2.09 µM) with Enterococcus faecalis [1]; 0.25 µg/mL (≈ 0.523 µM) against Staphylococcus aureus [2]; 0.5 µg/mL (≈ 1.05 µM) against Enterococcus faecalis [3]; 0.25 µg/mL (≈ 0.523 µM) with Staphylococcus aureus [5]; 0.25 µg/mL (≈ 0.523 µM) in the assay on Streptococcus pneumoniae. The values for the IC50 in assay [9] and in assay [4] were 12.5 µM and 4.18 µM, respectively.
Consider `COc1ccc(C2=C(O)O/C(=C\c3cccc(C(F)(F)F)c3)C2=O)cc1`, for which the minimal inhibitory concentration (MIC) came out at 128 µg/mL (≈ 353 µM) in the assay on Enterococcus faecalis [1]; 1 µg/mL (≈ 2.76 µM) against Staphylococcus aureus [2]; 64 µg/mL (≈ 177 µM) against Enterococcus faecalis [3]; 128 µg/mL (≈ 353 µM) against Staphylococcus aureus [5]; 2 µg/mL (≈ 5.52 µM) against Streptococcus pneumoniae. Further, the IC50 in assay [7] is 38.6 µM; in assay [4], greater than 69 µM; in [8] it was greater than 69 µM; in [6], 69 µM.
For `O=C1O/C(=C\c2ccccc2)C(O)=C1c1ccccc1` [PULVINONE], the half-inhibitory concentration (IC50) in [7] was no more than 30.3 µM.
